The subject of the data set is kidney. Put plainly: rat in vivo studies, histopathology of kidney. An excerpt: Results of in vivo studies and histopathology. All 10 rat in vivo studies were successfully conducted.
In FIG. 2, the distributions of grades of the histopathology assessment are shown. The predominance of grade 1 and grade 2 findings and the absence of grade 5 lesions indicate that the goal of inducing mainly mild nephrotoxicity has been achieved. The considerable number of grade 1 and some grade 2 findings in the vehicle-dosed and the hepatotoxicant-dosed animals indicates the level of sensitivity of the histopathology assessment performed in this project. No significant dose-dependent nephrotoxicity was induced by the hepatotoxicants. In FIG. 3 a detailed list of all reported localized lesions, including the number of occurrences for each grade, separated by nephrotoxicant-dosed animals and the control animals (vehicle-dosed and hepatotoxicant-dosed) is shown. Seventy-five different localized finding were observed.
The different types of lesions were usually not observed in an isolated fashion, but typically in a highly correlated manner representing different molecular processes. In FIG. 4, all histopathology findings are shown for the cisplatin study. […] In addition, a logical sequence of molecular processes along the dose- and time-ordered animals can be observed. […]

Experimental findings from patent US8609812B2, “Use of β-2-microglobulin to assess glomerular alterations and damage in the kidney” (Novartis AG, priority 2007, dated 2013) are described below.

Molecules are shown by their SMILES.

On to `N.N.[Cl][Pt][Cl]` [cisplatin], for which, for the setting “rat, in vivo”, the “renal histopathology findings, sequence of processes” value was “Necrosis as a consequence of damage is seen, and then regeneration processes such as basophilia and mitosis are seen”.

`S=C=Nc1cccc2ccccc12` [ANIT, alpha-naphtylisothiocyanate]: the “histopathology findings in the kidney” value (ANIT study, vehicle or different doses) is listed as “not in the kidney”.
